Drawing on ChEMBL document CHEMBL4425181, “Synthesis and antileishmanial activity of the core structure of cristaxenicin A” (Bioorg Med Chem Lett, 2016), this text covers IC50 for two compounds.

Format in all cases: functional, organism-based
For one experiment, the system named is Leishmania amazonensis. Description: Antileishmanial activity against Leishmania amazonensis promastigotes after 72 hrs by EGFP-reporter gene based fluorescence assay.
For the next experiment, the system named is Trypanosoma congolense. Description: Antitrypanosomal activity against Trypanosoma congolense IL3000 incubated for 48 hrs measured after 4 hrs.
A further experiment deals with Leishmania donovani. Description: Antileishmanial activity against Leishmania donovani MHOM/NP/03/D10 promastigotes after 72 hrs by EGFP-reporter gene based fluorescence assay. The settings on record: MHOM/NP/03/D10, 72 h. For orientation: A reporter such as luciferase makes a cellular process visible.

As for `CC(=O)O/C=C1\CCC/C(C=O)=C\C[C@@H]2C(C(=O)CC=C(C)C)=CO[C@H](OC(C)=O)[C@@H]12`, the IC50 was found to be 88 nM in the experiment with Leishmania amazonensis and 250 nM in the experiment on Trypanosoma congolense.
As to `CO[C@H]1OC=C(C(=O)OC(C)C)[C@H]2C/C=C(/C=O)CCCC(=O)[C@H]12`, the IC50 with Leishmania donovani turned out to be 2400 nM. This lies in the single-digit micromolar range.

A word on the IC50: it is the concentration that inhibits the measured activity by half.
